Measured values from US20230322767A1, “ARYL SUBSTITUTED PYRROLO-PYRIDINONES AND THERAPEUTIC USES THEREOF” (Bayer Aktiengesellschaft, priority 2020, published 2023).
Like-named read-outs stand apart in the source and are kept apart here.

Key:
[1] = target: wild-type Epidermal Growth Factor Receptor (EGFR) (Homo sapiens (Human), UniProt P00533); assay: WT-EGFR Kinase Assay (TR-FRET, 2 mM ATP); format: biochemical
From the text: Inhibitory activity of compounds of the present invention against wild-type Epidermal Growth Factor Receptor (EGFR) was quantified employing the TR-FRET based EGFR assay as described in the following paragraphs.
Recombinant fusion protein of N-terminal Glutathion-S-Transferase (GST) and a fragment of human EGFR (amino acids R669 to A1210), expressed in Sf9 insect cells and purified via affinity chromatography using Glutathion Sepharose as described above, was used as kinase. As substrate for the kinase reaction the biotinylated peptide biotin-Ahx-[…] (C-terminus in amide form) was used which can be purchased e.g. form the company Biosynthan GmbH (Berlin-Buch, Germany).
For the assay 50 nl of a 100 fold concentrated solution of the test compound in DMSO was pipetted into either a black low volume 384 well microtiter plate or a black 1536 well microtiter plate (both Greiner Bio-One, Frickenhausen, Germany), 2 μL of a solution of EGFR in aqueous assay buffer [50 mM Hepes pH 7.0, 10 mM MgCl2, 1 mM dithiothreitol, 0.5 mM EGTA, 0.3 mM activated sodium ortho-vanadate, 0.005% (w/v) bovine serum albumin, 0.005% (v/v) Tween-20] were added and the mixture was incubated for 15 min at 22° C. to allow pre-binding of the test compounds to the enzyme before the start of the kinase reaction. […] The concentration of EGFR was adjusted depending of the activity of the enzyme lot and was chosen appropriate to have the assay in the linear range, typical concentration was […]. The reaction was stopped by the addition of 3 μL of a solution of HTRF detection reagents (83.3 nM streptavidine-XL665 [Cisbio Bioassays, Codolet, France] and 1.67 nM PT66-Tb-Cryptate, a terbium-cryptate labelled anti-phospho-tyrosine antibody from Cisbio Bioassays [instead of the PT66-Tb-cryptate PT66-Eu-Chelate from Perkin Elmer can also be used]) in an aqueous EDTA-solution (133.3 mM EDTA, 0.2% (w/v) bovine serum albumin in 50 mM HEPES pH 7.5).
The resulting mixture was incubated 1 h at 22° C. to allow the binding of the biotinylated phosphorylated peptide to the streptavidine-XL665 and the PT66-Tb-Cryptate. Subsequently the amount of phosphorylated substrate was evaluated by measurement of the resonance energy transfer from the PT66-Tb-Cryptate to the streptavidine-XL665. Therefore, the fluorescence emissions at 620 nm and 665 nm after excitation at 337 nm were measured in a HTRF reader, e.g. a Pherastar (BMG Labtechnologies, Offenburg, Germany) or a Viewlux (Perkin-Elmer). The ratio of the emissions at 665 nm and at 622 nm was taken as the measure for the amount of phosphorylated substrate.

CSNK1A1 = CSNK1A1 (Homo sapiens (Human), UniProt P48729); assay: CSNK1A1 Assay 2 (ADP-Glo, 1 μM ATP); format: biochemical; settings: median, read-out: CSNK1A1 Assay 2 IC50 [mol/l] (median)
Description: CSNK1A1-inhibitory activity of compounds of the present invention in presence of 1 μM adenosine-tri-phosphate (ATP) was quantified employing the CSNK1A1 assay as described in the following paragraphs. In essence, the enzyme activity is measured by quantification of the adenosine-di-phosphate (ADP), which is generated as a co-product of the enzyme reaction, via the “ADP-Glo™ Kinase Assay” kit from the company Promega. This detection system works as follows: In a first step the ATP not consumed in the kinase reaction is quantitatively converted to cAMP employing an adenylate cyclase (“ADP-Glo-reagent”), then the adenylate cyclase is stopped and the ADP generated in the kinase reaction converted to ATP which generates in a luciferase-based reaction a glow-luminescence signal (“Kinase Detection Reagent”).
As substrate for the kinase reaction the biotinylated peptide biotin-Ahx-KRRRAL-pS-VASLPGL (C-terminus in amide form) was used which can be purchased e.g. from the company Biosyntan (Berlin-Buch, Germany).
For the assay 50 nl of a 100 fold concentrated solution of the test compound in DMSO was pipetted into a white 1536-well microtiter plate (Greiner Bio-One, Frickenhausen, Germany), 2 μL of a solution of CSNK1A1 in aqueous assay buffer [50 mM HEPES pH 7.5, 10% (v/v) glycerol, 10 mM MgCl2, 50 mM NaCl, 1 mM dithiothreitol, 0.01% (w/v) bovine serum albumin, 0.01% (v/v) Triton X-100] were added and the mixture was incubated for 15 min at 22° C. to allow pre-binding of the test compounds to the enzyme before the start of the kinase reaction. […] The concentration of CSNK1A1 was adjusted depending of the activity of the enzyme lot and was chosen appropriate to have the assay in the linear range, a typical concentrations are about 0.0375 ng/μL. The reaction was stopped by the addition of 2.5 μL of “ADP-Glo-reagent” (1:1.5 fold diluted with water) and the resulting mixture was incubated at 22° C. for 1 h to convert the ATP not consumed in the kinase reaction completely […]. Subsequently 2.5 μL of the “kinase detection reagent” (1.2 fold more concentrated than recommended by the producer) were added, the resulting mixture was incubated at 22° C. for 1 h and then the luminescence measured with a suitable measurement instrument (e.g. Viewlux™ from Perkin-Elmer). The amount of emitted light was taken as a measure for the amount of ADP generated and thereby for the activity of the CSNK1A1.

[2] = EGFR Wildtyp 2 mM ATP IC50 [mol/l] (median), median or individual measurements
[3] = read-out: EGFR Wildtyp 2 mM ATP IC50 [mol/l] (median), median or individual measurements

wild-type Epidermal Growth Factor Receptor (EGFR), sequence (P00533 669-1210): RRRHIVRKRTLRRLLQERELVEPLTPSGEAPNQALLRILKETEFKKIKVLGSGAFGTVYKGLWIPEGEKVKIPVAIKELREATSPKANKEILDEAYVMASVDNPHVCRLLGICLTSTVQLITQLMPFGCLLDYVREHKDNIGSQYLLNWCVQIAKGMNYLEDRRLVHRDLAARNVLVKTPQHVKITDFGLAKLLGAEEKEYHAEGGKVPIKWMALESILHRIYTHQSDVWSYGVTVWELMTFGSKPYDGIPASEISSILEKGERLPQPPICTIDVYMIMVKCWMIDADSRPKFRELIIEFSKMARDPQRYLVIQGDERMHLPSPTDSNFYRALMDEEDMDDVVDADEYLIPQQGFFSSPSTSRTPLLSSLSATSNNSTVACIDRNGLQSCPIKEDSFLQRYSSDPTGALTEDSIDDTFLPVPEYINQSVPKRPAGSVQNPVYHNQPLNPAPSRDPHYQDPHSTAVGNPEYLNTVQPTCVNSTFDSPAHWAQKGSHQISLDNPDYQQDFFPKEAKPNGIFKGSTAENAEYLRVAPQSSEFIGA
CSNK1A1, sequence (P48729 whole entry): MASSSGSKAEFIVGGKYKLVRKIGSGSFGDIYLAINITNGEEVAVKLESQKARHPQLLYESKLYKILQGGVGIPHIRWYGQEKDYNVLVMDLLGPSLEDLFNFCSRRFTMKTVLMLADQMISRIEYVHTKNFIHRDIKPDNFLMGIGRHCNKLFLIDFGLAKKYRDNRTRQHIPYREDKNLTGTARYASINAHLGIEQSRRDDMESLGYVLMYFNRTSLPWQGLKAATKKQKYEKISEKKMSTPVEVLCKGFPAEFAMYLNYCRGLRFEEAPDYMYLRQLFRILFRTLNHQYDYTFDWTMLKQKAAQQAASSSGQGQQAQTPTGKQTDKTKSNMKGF

Row | Structure (SMILES) | IC50 [1, 2] | IC50 (CSNK1A1) | IC50 [1, 3]
1 | O=C(Nc1cc(-c2[nH]c3cc[nH]c(=O)c3c2-c2ccccc2)ccn1)C(CC(F)F)c1ccc(F)cc1 (racemic) [Example 76, 4,4-difluoro-2-(4-fluorophenyl)-N-[4-(4-oxo-3-phenyl-4,5-dihydro-1H-pyrrolo[3,2-c]pyridin-2-yl)pyridin-2-yl]butanamide] | > 20 µM | 0.002 µM | 
2 | Cc1cn(C)c(=O)c2c(-c3ccc(F)cc3)c(-c3ccnc(NC(=O)C(C)c4ccc(F)cc4)c3)[nH]c12 (single isomer, unassigned; (-)) [Example 031, (-)-2-(4-fluorophenyl)-N-{4-[3-(4-fluorophenyl)-5,7-dimethyl-4-oxo-4,5-dihydro-1H-pyrrolo[3,2-c]pyridin-2-yl]pyridin-2-yl}propanamide] | > 20 µM |  | 
3 | Cc1cn(C)c(=O)c2c(-c3ccc(F)cc3)c(-c3ccnc(NC(=O)C(CC(F)F)c4ccc(F)cc4)c3)[nH]c12 (single isomer, unassigned; (-)) [Example 035, (-)-4,4-difluoro-2-(4-fluorophenyl)-N-{4-[3-(4-fluorophenyl)-5,7-dimethyl-4-oxo-4,5-dihydro-1H-pyrrolo[3,2-c]pyridin-2-yl]pyridin-2-yl}butanamide] | > 20 µM |  | 
4 | CN1C(=O)c2c([nH]c(-c3ccnc(NC(=O)C(CC(F)F)c4ccc(F)cc4)c3)c2-c2ccccc2)CC12CCC2 (single isomer, unassigned; (-)) [Example 050, (-)-4,4-difluoro-2-(4-fluorophenyl)-N-[4-(5′-methyl-4′-oxo-3′-phenyl-1′,4′,5′,7′-tetrahydrospiro-[cyclobutane-1,6′-pyrrolo[3,2-c]pyridin]-2′-yl)pyridin-2-yl]butanamide] | 11.9 µM |  | 
5 | CC(C(=O)Nc1cc(-c2[nH]c3c(c2-c2ccccc2)C(=O)N(C)C2(CCC2)C3)ccn1)c1ccc(F)cc1 (single isomer, unassigned; (-)) [Example 053, (-)-2-(4-fluorophenyl)-N-[4-(5′-methyl-4′-oxo-3′-phenyl-1′,4′,5′,7′-tetrahydrospiro[cyclobutane-1,6′-pyrrolo[3,2-c]pyridin]-2′-yl)pyridin-2-yl]propanamide] | > 20 µM |  | 
6 | CN1CCc2[nH]c(-c3ccnc(NC(=O)Cc4ccc(F)cc4)c3)c(-c3cccnc3)c2C1=O [Example 012, 2-(4-fluorophenyl)-N-{4-[5-methyl-4-oxo-3-(pyridin-3-yl)-4,5,6,7-tetrahydro-1H-pyrrolo[3,2-c]pyridin-2-yl]pyridin-2-yl}acetamide] |  |  | > 20 µM
7 | CC(C(=O)Nc1cc(-c2[nH]c3c(c2-c2ccccc2)C(=O)N(C)CC3CC(F)(F)F)ccn1)c1ccc(F)cc1 (centres unmarked) [Example 013] |  |  | > 20 µM
8 | CN1CC(CC(F)(F)F)c2[nH]c(-c3ccnc(NC(=O)C(CC(F)F)c4ccc(F)cc4)c3)c(-c3ccccc3)c2C1=O (centres unmarked) [Example 017] |  |  | > 20 µM
9 | CC(C(=O)Nc1cc(-c2[nH]c3c(c2-c2ccc(F)cc2)C(=O)N(C)CC3CC(F)(F)F)ccn1)c1ccc(F)cc1 (centres unmarked) [Example 021] |  |  | > 20 µM
10 | CN1CC(CC(F)(F)F)c2[nH]c(-c3ccnc(NC(=O)C(CC(F)F)c4ccc(F)cc4)c3)c(-c3ccc(F)cc3)c2C1=O (centres unmarked) [Example 025] |  |  | > 20 µM
11 | CC1CN(C)C(=O)c2c1[nH]c(-c1ccnc(NC(=O)C(C)c3ccc(F)cc3)c1)c2-c1ccc(F)cc1 (centres unmarked) [Example 029] |  |  | > 20 µM
12 | CC1CN(C)C(=O)c2c1[nH]c(-c1ccnc(NC(=O)C(C)c3ccc(F)cc3)c1)c2-c1ccccc1 (centres unmarked) [Example 037] |  |  | > 20 µM
13 | CC1CN(C)C(=O)c2c1[nH]c(-c1ccnc(NC(=O)C(CC(F)F)c3ccc(F)cc3)c1)c2-c1ccccc1 (centres unmarked) [Example 039] |  |  | > 20 µM
14 | CC1c2[nH]c(-c3ccnc(NC(=O)C(CC(F)F)c4ccc(F)cc4)c3)c(-c3ccccc3)c2C(=O)N(C)C1C (centres unmarked) [Example 041] |  |  | > 20 µM
15 | CC1(C)CNC(=O)c2c1[nH]c(-c1ccnc(NC(=O)Cc3ccc(F)cc3)c1)c2-c1ccccc1 [Example 042, N-[4-(7,7-dimethyl-4-oxo-3-phenyl-4,5,6,7-tetrahydro-1H-pyrrolo[3,2-c]pyridin-2-yl)pyridin-2-yl]-2-(4-fluorophenyl)acetamide] |  |  | 5.6 µM
16 | Cn1cc(CC2CC2)c2[nH]c(-c3ccnc(NC(=O)Cc4ccc(F)cc4)c3)c(-c3ccccc3)c2c1=O [Example 056, N-{4-[7-(cyclopropylmethyl)-5-methyl-4-oxo-3-phenyl-4,5-dihydro-1H-pyrrolo[3,2-c]pyridin-2-yl]pyridin-2-yl}-2-(4-fluorophenyl)acetamide] |  |  | > 20 µM
17 | CC(C(=O)Nc1cc(-c2[nH]c3c(c2-c2ccccc2)C(=O)N(C)CC3CC2CC2)ccn1)c1ccc(F)cc1 (centres unmarked) [Example 057] |  |  | > 20 µM
18 | CN1CC(CC2CC2)c2[nH]c(-c3ccnc(NC(=O)C(CC(F)F)c4ccc(F)cc4)c3)c(-c3ccccc3)c2C1=O (centres unmarked) [Example 059] |  |  | > 20 µM
19 | CC(C(=O)Nc1cc(-c2[nH]c3c(c2-c2ccc(F)cc2)C(=O)N(C)CC3CC2CC2)ccn1)c1ccc(F)cc1 (centres unmarked) [Example 062] |  |  | > 5.71 µM
